Assay results from patent US8394952B2 (Vertex Pharmaceuticals Incorporated, priority 2006, dated 2013).

Target: Plk1 (Homo sapiens, UniProt P53350)
Assay: biochemical

Chain of Plk1 (P53350 20-338): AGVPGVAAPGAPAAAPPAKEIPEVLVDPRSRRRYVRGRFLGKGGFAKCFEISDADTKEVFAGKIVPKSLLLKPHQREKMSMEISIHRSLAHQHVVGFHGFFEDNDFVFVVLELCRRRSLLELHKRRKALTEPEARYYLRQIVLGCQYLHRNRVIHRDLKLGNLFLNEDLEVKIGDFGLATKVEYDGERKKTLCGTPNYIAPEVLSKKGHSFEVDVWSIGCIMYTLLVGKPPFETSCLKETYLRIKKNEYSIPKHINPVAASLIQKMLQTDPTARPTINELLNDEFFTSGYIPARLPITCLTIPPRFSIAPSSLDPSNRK

Row | SMILES | Ki [µM]
1 | CN1C(=O)C(C)(C)CN(C2CCCC2)c2nc(Nc3ccc(N4CCOCC4)cc3)ncc21 [Compound I-63, 2-(4-morpholinophenylamino)-9-cyclopentyl-8,9-dihydro-5,7,7-trimethyl-5H-pyrimido[4,5-b][1,4]diazepin-6(7H)-one] | 0.01 to 0.1
2 | COc1cc(C(=O)NC2CCN(C)CC2)ccc1Nc1ncc2c(n1)N(C1CCCC1)CC1(CCC1)C(=O)N2C [Compound I-64, 4-(9′-cyclopentyl-5′-methyl-6′-oxo-5′,6′,8′,9′-tetrahydrospiro[cyclobutane-1,7′-pyrimido[4,5-b][1,4]diazepine]-2′-ylamino)-3-methoxy-N-(1-methylpiperidin-4-yl)benzamide] | < 0.01
3 | CNC(=O)c1ccc(Nc2ncc3c(n2)N([C@@H]2CCN(CC4CC4)C2)CC(C)(C)C(=O)N3C)c(OC)c1 [Compound I-66] | 0.01 to 0.1
4 | COc1cc(C(=O)NC2CCN(C(C)C)CC2)ccc1Nc1ncc2c(n1)N(C1CCCC1)CC(C)(C)C(=O)N2C [Compound I-67] | < 0.01
5 | CCCN1CCC(NC(=O)c2ccc(Nc3ncc4c(n3)N(C3CCCC3)CC(C)(C)C(=O)N4C)c(OC)c2)CC1 [Compound I-69] | < 0.01
6 | COc1cc(C(=O)NC2CCN(CC(C)C)CC2)ccc1Nc1ncc2c(n1)N(C1CCCC1)CC(C)(C)C(=O)N2C [Compound I-70] | < 0.01
7 | CCN1CCC(NC(=O)c2ccc(Nc3ncc4c(n3)N(C3CCCC3)CC(C)(C)C(=O)N4C)c(OC)c2)CC1 [Compound I-72] | < 0.01
8 | COc1cc(C(=O)N[C@H]2CCN(C(C)C)C2)ccc1Nc1ncc2c(n1)N(C1CCCC1)CC(C)(C)C(=O)N2C [Compound I-73, 4-(9-cyclopentyl-6,7,8,9-tetrahydro-5,7,7-trimethyl-6-oxo-5H-pyrimido[4,5-b][1,4]diazepin-2-ylamino)-N—((S)-1-isoipropylpyrrolidin-3-yl)-3-methoxybenzamide] | < 0.01
9 | CCOc1cc(C(=O)NC2CCN(C)CC2)ccc1Nc1ncc2c(n1)N(C1CCCC1)CC(C)(C)C(=O)N2C [Compound I-74, 4-(9-cyclopentyl-6,7,8,9-tetrahydro-5,7,7-trimethyl-6-oxo-5H-pyrimido[4,5-b][1,4]diazepin-2-ylamino)-3-ethoxy-N-(1-methylpiperidin-4-yl)benzamide] | < 0.01
10 | COc1cc(C(=O)NC2CCN(C)CC2)ccc1Nc1ncc2c(n1)N(C1CCCC1)CC1(CC1)C(=O)N2C [Compound I-76, 4-(9′-cyclopentyl-5′-methyl-6′-oxo-5′,6′,8′,9′-tetrahydrospiro[cyclopropane-1,7′-pyrimido[4,5-b][1,4]diazepine]-2′-ylamino)-3-methoxy-N-(1-methylpiperidin-4-yl)benzamide] | < 0.01
11 | COc1cc(C(=O)NC2CCN(CCF)CC2)ccc1Nc1ncc2c(n1)N(C1CCCC1)CC(C)(C)C(=O)N2C [Compound I-77, 4-(-9-cyclopentyl-6,7,8,9-tetrahydro-5,7,7-trimethyl-6-oxo-5H-pyrimido[4,5-b][1,4]diazepin-2-ylamino)-N-(1-(2-fluoroethyl)piperidin-4-yl)-3-methoxybenzamide] | < 0.01
12 | CN1C(=O)C(C)(C)CN(C2CCCC2)c2nc(Nc3ccc(NC(=O)C(F)(F)F)cc3)ncc21 [Compound I-78, N-(4-(9-cyclopentyl-6,7,8,9-tetrahydro-5,7,7-trimethyl-6-oxo-5H-pyrimido[4,5-b][1,4]diazepin-2-ylamino)phenyl)-2,2,2-trifluoroacetamide] | 0.01 to 0.1
13 | CC(=O)N1CCc2cc(Nc3ncc4c(n3)N(C3CCCC3)CC(C)(C)C(=O)N4C)ccc21 [Compound I-79, 2-(1-acetylindolin-5-ylamino)-9-cyclopentyl-8,9-dihydro-5,7,7-trimethyl-5H-pyrimido[4,5-b][1,4]diazepin-6(7H)-one] | 0.01 to 0.1
14 | CNC(=O)c1ccc(Nc2ncc3c(n2)N(C2CCCC2)CC(C)(C)C(=O)N3C)cc1 [Compound I-80, 4-(9-cyclopentyl-6,7,8,9-tetrahydro-5,7,7-trimethyl-6-oxo-5H-pyrimido[4,5-b][1,4]diazepin-2-ylamino)-N-methylbenzamide] | < 0.01
15 | CN1C(=O)C(C)(C)CN(C2CCCC2)c2nc(Nc3cccc4[nH]ncc34)ncc21 [Compound I-81, 2-(1H-indazol-4-ylamino)-9-cyclopentyl-8,9-dihydro-5,7,7-trimethyl-5H-pyrimido[4,5-b][1,4]diazepin-6(7H)-one] | 0.01 to 0.1
16 | CN1CCN(c2ccc(Nc3ncc4c(n3)N(C3CCCC3)CC(C)(C)C(=O)N4C)cc2)CC1 [Compound I-85, 2-(4-(4-methylpiperazin-1-yl)phenylamino)-9-cyclopentyl-8,9-dihydro-5,7,7-trimethyl-5H-pyrimido[4,5-b][1,4]diazepin-6(7H)-one] | < 0.01
17 | CN1C(=O)C(C)(C)CN(C2CCCC2)c2nc(Nc3ccc(CN4CCOCC4)cc3)ncc21 [Compound I-86] | 0.01 to 0.1
18 | CN1C(=O)C(C)(C)CN(C2CCCC2)c2nc(Nc3ccc(C(=O)NCCO)cc3)ncc21 [Compound I-87, 4-(9-cyclopentyl-6,7,8,9-tetrahydro-5,7,7-trimethyl-6-oxo-5H-pyrimido[4,5-b][1,4]diazepin-2-ylamino)-N-(2-hydroxyethyl)benzamide] | < 0.01
19 | CN1C(=O)C(C)(C)CN(C2CCCC2)c2nc(Nc3ccccc3)ncc21 [Compound I-90, 9-cyclopentyl-8,9-dihydro-5,7,7-trimethyl-2-(phenylamino)-5H-pyrimido[4,5-b][1,4]diazepin-6(7H)-one] | 0.01 to 0.1
20 | COc1cc(C(=O)NC2CC2)ccc1Nc1ncc2c(n1)N(C1CCCC1)CC(C)(C)C(=O)N2C [Compound I-93, 4-(9-cyclopentyl-6,7,8,9-tetrahydro-5,7,7-trimethyl-6-oxo-5H-pyrimido[4,5-b][1,4]diazepin-2-ylamino)-N-cyclopropyl-3-methoxybenzamide] | < 0.01
21 | CNC(=O)c1ccc(Nc2ncc3c(n2)N([C@@H]2CCCN(C)C2)CC(C)(C)C(=O)N3C)c(OC)c1 [Compound I-96, 4-(6,7,8,9-tetrahydro-5,7,7-trimethyl-9-((R)-1-methylpiperidine-3-yl)-6-oxo-5H-pyrimido[4,5-b][1,4]diazepin-2-ylamino)-3-methoxy-N-methylbenzamide] | < 0.01
22 | CNC(=O)c1ccc(Nc2ncc3c(n2)N(C2CCN(C)CC2)CC(C)(C)C(=O)N3C)c(OC)c1 [Compound I-97, 4-(6,7,8,9-tetrahydro-5,7,7-trimethyl-9-((R)-1-methylpiperidine-4-yl)-6-oxo-5H-pyrimido[4,5-b][1,4]diazepin-2-ylamino)-3-methoxy-N-methylbenzamide] | 0.01 to 0.1
23 | Cc1cc(O)n(-c2ccc(Nc3ncc4c(n3)N(C3CCCC3)CC(C)(C)C(=O)N4C)cc2)n1 [Compound I-98, 2-(4-(5-hydroxy-3-methyl-1H-pyrazol-1-yl)phenylamino)-9-cyclopentyl-8,9-dihydro-5,7,7-trimethyl-5H-pyrimido[4,5-b][1,4]diazepin-6(7H)-one] | 0.01 to 0.1

Continued, values first:

Row | Ki [µM] | SMILES
24 | 0.01 to 0.1 | COc1cc(C(=O)NC2CCN(C)CC2)ccc1Nc1ncc2c(n1)N(C1CCCC1)[C@H](C)CC(=O)N2C [Compound I-65, 4-((R)-9-cyclopentyl-6,7,8,9-tetrahydro-5,8-dimethyl-6-oxo-5H-pyrimido[4,5-b][1,4]diazepin-2-ylamino)-3-methoxy-N-(1-methylpiperidin-4-yl)benzamide]
25 | < 0.01 | COc1cc(C(=O)NC2CC(C)(C)N(C)C(C)(C)C2)ccc1Nc1ncc2c(n1)N(C1CCCC1)CC(C)(C)C(=O)N2C [Compound I-68, 4-(9-cyclopentyl-6,7,8,9-tetrahydro-5,7,7-trimethyl-6-oxo-5H-pyrimido[4,5-b][1,4]diazepin-2-ylamino)-3-methoxy-N-(1,2,2,6,6-pentamethylpiperidin-4-yl)-benzamide]
26 | < 0.01 | COc1cc(C(=O)NC2CCN(C(C)(C)C)CC2)ccc1Nc1ncc2c(n1)N(C1CCCC1)CC(C)(C)C(=O)N2C [Compound I-71, 4-(9-cyclopentyl-6,7,8,9-tetrahydro-5,7,7-trimethyl-6-oxo-5H-pyrimido[4,5-b][1,4]diazepin-2-ylamino)-N-(1-tert-butylpiperidin-4-yl)-3-methoxybenzamide]
27 | < 0.01 | COc1cc(C(=O)N[C@H]2CCN(CC3CC3)C2)ccc1Nc1ncc2c(n1)N(C1CCCC1)CC(C)(C)C(=O)N2C [Compound I-75, 4-(9-cyclopentyl-6,7,8,9-tetrahydro-5,7,7-trimethyl-6-oxo-5H-pyrimido[4,5-b][1,4]diazepin-2-ylamino)-N—((S)-1-(cyclopropylmethyl)pyrrolidin-3-yl)-3-methoxybenzamide]
28 | 0.01 to 0.1 | CN1C(=O)C(C)(C)CN(C2CCCC2)c2nc(Nc3cccc4cn[nH]c34)ncc21 [Compound I-89, 2-(1H-indazo-7-ylamino)-9-cyclopentyl-8,9-dihydro-5,7,7-trimethyl-5H-pyrimido[4,5-b][1,4]diazepin-6(7H)-one]
29 | 0.01 to 0.1 | CN1C(=O)C(C)(C)CN(C2CCCC2)c2nc(Nc3cccc4cn(C)nc34)ncc21 [Compound I-91, 2-(2-methyl-2H-indazol-7-ylamino)-9-cyclopentyl-8,9-dihydro-5,7,7-trimethyl-5H-pyrimido[4,5-b][1,4]diazepin-6(7H)-one]
30 | 0.01 to 0.1 | CN1C(=O)C(C)(C)CN(C2CCCC2)c2nc(Nc3cccn4ncnc34)ncc21 [Compound I-92, 2-([1,2,4]triazolo[1,5-a]pyridin-8-ylamino)-9-cyclopentyl-8,9-dihydro-5,7,7-trimethyl-5H-pyrimido[4,5-b][1,4]diazepin-6(7H)-one]
31 | < 0.01 | COc1cc(C(=O)NC2CCC2)ccc1Nc1ncc2c(n1)N(C1CCCC1)CC(C)(C)C(=O)N2C [Compound I-94, 4-(9-cyclopentyl-6,7,8,9-tetrahydro-5,7,7-trimethyl-6-oxo-5H-pyrimido[4,5-b][1,4]diazepin-2-ylamino)-N-cyclobutyl-3-methoxybenzamide]
32 | < 0.01 | COc1cc(C(=O)NC2CCN(C(=O)OC(C)(C)C)CC2)ccc1Nc1ncc2c(n1)N(C1CCCC1)CC(C)(C)C(=O)N2C [Compound I-95]
33 | < 0.01 | CN1C(=O)C(C)(C)CN(C2CCCC2)c2nc(Nc3ccc(-c4cc[nH]n4)cc3)ncc21 [Compound I-99, 2-(4-(1H-pyrazol-3-yl)phenylamino)-9-cyclopentyl-8,9-dihydro-5,7,7-trimethyl-5H-pyrimido[4,5-b][1,4]diazepin-6(7H)-one]
34 | < 0.01 | COc1cc(C(=O)NC2CCNCC2)ccc1Nc1ncc2c(n1)N(C1CCCC1)CC(C)(C)C(=O)N2C [Compound I-101]
